One data set has as its system Calu-6. Nature of the data set: Cell proliferation-inhibiting activity (ATP in viable cells, CellTiter-Glo), Calu-6. The format is cell-based, human. The following applies: Calu-6, 96 h; human lung cancer cells, 4 days; read-out: Calu-6 IC50. On the technique in general: Cellular ATP, detected with luciferase, serves as a proxy for viable cell number.
The nature of data set [1]: Human liver microsome stability. The class given is in vitro ADME. Conditions: human liver microsomes, pH 7.4.
In a further data set the target is T1, BRAF (Homo sapiens, UniProt P15056).
T1 construct: purchased Eurofins Genomics KK; (BRAF); Thermo Fisher Scientific Inc. (MEK1)
T1 sequence (P15056 417-766 limits assumed): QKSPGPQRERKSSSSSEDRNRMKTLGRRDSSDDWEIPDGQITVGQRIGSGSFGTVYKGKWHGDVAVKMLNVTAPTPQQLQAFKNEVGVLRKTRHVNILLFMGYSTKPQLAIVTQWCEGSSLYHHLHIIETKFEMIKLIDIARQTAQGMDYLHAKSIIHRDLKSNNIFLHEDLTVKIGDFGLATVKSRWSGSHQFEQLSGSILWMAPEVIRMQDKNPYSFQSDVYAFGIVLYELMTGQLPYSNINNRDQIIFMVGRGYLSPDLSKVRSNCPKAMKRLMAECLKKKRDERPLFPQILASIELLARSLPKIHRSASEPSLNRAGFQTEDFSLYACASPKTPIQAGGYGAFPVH
Put plainly: BRAF-inhibiting activity, time-resolved fluorescence-fluorescence resonance energy transfer assay. The format is biochemical. The following applies: read-out: BRAF IC50; Table 3. As to the method: The BRAF-inhibiting activity of the compounds listed in Table 3 below was evaluated by the time-resolved fluorescence-fluorescence resonance energy transfer assay as described below.

The target of another data set is T2, MEK1 (Homo sapiens, UniProt Q02750).
T2 construct: purchased Thermo Fisher Scientific Inc. (MEK1, CRAF); Carna Biosciences, Inc. (ERK2)
T2 sequence (Q02750 whole entry): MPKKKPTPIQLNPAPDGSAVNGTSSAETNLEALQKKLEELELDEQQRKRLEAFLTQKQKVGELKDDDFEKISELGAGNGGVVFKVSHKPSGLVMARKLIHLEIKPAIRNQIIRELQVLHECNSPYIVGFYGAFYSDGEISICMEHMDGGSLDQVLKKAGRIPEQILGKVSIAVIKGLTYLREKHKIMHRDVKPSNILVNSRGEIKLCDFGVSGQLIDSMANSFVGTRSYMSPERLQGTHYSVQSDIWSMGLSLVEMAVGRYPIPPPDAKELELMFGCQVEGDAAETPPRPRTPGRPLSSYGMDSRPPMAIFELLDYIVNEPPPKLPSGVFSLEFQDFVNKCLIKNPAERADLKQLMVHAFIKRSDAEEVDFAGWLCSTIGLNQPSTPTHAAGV
Put plainly: MEK1-inhibiting activity, fluorescent polarization method (CRAF/MEK1/ERK2 cascade, IMAP). The format is biochemical. The following applies: Table 3; read-out: MEK1 IC50. How it is done: The MEK1-inhibiting activity of the compounds listed in Table 3 below were evaluated by the fluorescent polarization method as described below.

A further data set deals with NCI-H2122. Put plainly: Cell proliferation-inhibiting activity (ATP in viable cells, CellTiter-Glo), NCI-H2122. The format is cell-based, human. The following applies: NCI-H2122, 96 h; human lung cancer cells, 4 days; read-out: NCI-H2122 IC50.
The next data set has as its system A549. Nature of the data set: Cell proliferation-inhibiting activity (ATP in viable cells, CellTiter-Glo), A549. The format is cell-based, human. Conditions: A549, 96 h; human lung cancer cells, 4 days; read-out: A549 IC50.

As usually defined, the IC50 is the midpoint of a concentration-inhibition curve. For orientation: microsomal CLint means the capacity of the preparation to metabolise the compound, expressed as a volume cleared per time. Turning to `CC(C)(C)NS(=O)(=O)Nc1nccc(Cc2cc(C(N)=O)c(Nc3ccc(I)cc3F)c(F)c2F)c1F` [Compound A-37, 5-[[2-(tert-Butylsulfamoylamino)-3-fluoropyridin-4-yl]methyl]-3,4-difl uoro-2-(2-fluoro-4-iodoanilino)benzamide], the IC50 amounted to 26 nM in the data set with Calu-6; 7 nM on BRAF; 50 nM on MEK1; 7 nM in the data set on NCI-H2122; 21 nM in the data set on A549. This compound displayed an intrinsic metabolic clearance (microsomal CLint) at 0.99 µM in data set [1] of 10 µL/min/mg.

On to `CCNS(=O)(=O)Nc1nccc(Cc2cc(C(N)=O)c(Nc3ccc(I)cc3F)c(F)c2F)c1F` [Compound A-40, 5-[[2-(ethylsulfamoylamino)-3-fluoropyridin-4-yl]methyl]-3,4-d ifluoro-2-(2-fluoro-4-iodoanilino)benzamide], for which the IC50 in the data set on Calu-6 was 12 nM; on BRAF, 2 nM; on MEK1, 19 nM; in the data set with NCI-H2122, 2 nM; in the data set with A549 it was 4 nM. In data set [1], the microsomal CLint at 0.99 µM was found to be 2 µL/min/mg.

For `CCCNS(=O)(=O)Nc1nccc(Cc2cc(C(N)=O)c(Nc3ccc(I)cc3F)c(F)c2F)c1F` [Compound A-41, 3,4-difluoro-2-(2-fluoro-4-iodoanilino)-5-[[3-fluoro-2-(propylsulfamoylamino)pyridin-4-yl]methyl]benzamide], the 50% inhibitory concentration (IC50) with Calu-6 amounted to 8 nM; at BRAF, 7 nM; at MEK1, 29 nM; in the data set with NCI-H2122, 2 nM; in the data set on A549 it was 12 nM. In data set [1], this compound gave an intrinsic metabolic clearance (microsomal CLint) at 0.99 µM of 5 µL/min/mg.

As for `NC(=O)c1cc(Cc2ccnc(NS(=O)(=O)NCCF)c2F)c(F)c(F)c1Nc1ccc(I)cc1F` [Compound A-42, 3,4-difluoro-5-[[3-fluoro-2-(2-fluoroethylsulfamoylamino)pyridin-4-yl]methyl]-2-(2-fluoro-4-iodoanilino)benzamide], the IC50 with Calu-6 stood at 68 nM; at BRAF, 6 nM; on MEK1, 18 nM; with NCI-H2122 it was 7 nM; in the data set with A549 it was 9 nM. For the same compound, in data set [1], the microsomal CLint at 0.99 µM came out at 6 µL/min/mg.

Turning to `CNS(=O)(=O)Nc1nccc(Cc2cc(C(=O)NOCCO)c(Nc3ccc(I)cc3F)c(F)c2F)c1F` [Compound B-1, 3,4-difluoro-2-(2-fluoro-4-iodoanilino)-5-[[3-fluoro-2-(methylsulfamoylamino)pyridin-4-yl]methyl]-N-(2-hydroxyethoxy)benzamide], the half-inhibitory concentration (IC50) in the data set on Calu-6 was 11 nM; at BRAF, 5 nM; at MEK1 it was 2 nM; in the data set on NCI-H2122, 2 nM; with A549 it was 6 nM. In addition, the intrinsic clearance (microsomal CLint) at 0.99 µM in data set [1] was found to be 15 µL/min/mg.

In the case of `CNS(=O)(=O)Nc1nccc(Cc2cc(C(=O)NOCCOC)c(Nc3ccc(I)cc3F)c(F)c2F)c1F` [Compound B-2, 3,4-Difluoro-2-(2-fluoro-4-iodoanilino)-5-[[3-fluoro-2-(methylsulfamoylamino)pyridin-4-yl]methyl]-N-(2-methoxyethoxy)benzamide], the half-inhibitory concentration (IC50) in the data set with Calu-6 is 7 nM; on BRAF, 3 nM; at MEK1, 4 nM; in the data set with NCI-H2122, 1 nM; in the data set with A549, 1 nM. The compound further registered a microsomal CLint at 0.99 µM in data set [1] of 53 µL/min/mg.

Take `NC(=O)c1cc(Cc2ccnc(NS(N)(=O)=O)c2F)c(F)c(F)c1Nc1ccc(I)cc1F` [Compound B-10, 3,4-Difluoro-2-(2-fluoro-4-iodoanilino)-5-[[3-fluoro-2-(sulfamoylamino)pyridin-4-yl]methyl]benzamide]: the IC50 with Calu-6 was found to be 33 nM; on BRAF it was 11 nM; on MEK1 it was 22 nM; with NCI-H2122, 8 nM; in the data set with A549 it was 72 nM. Besides, in data set [1], the intrinsic metabolic clearance (microsomal CLint) at 0.99 µM was 3 µL/min/mg.

As for `NC(=O)c1cc(Cc2ccnc(NS(=O)(=O)NC3CC3)c2F)c(F)c(F)c1Nc1ccc(I)cc1Cl` [Compound B-11, 2-(2-Chloro-4-iodoanilino)-5-[[2-(cyclopropylsulfamoylamino)-3-fluor opyridin-4-yl]methyl]-3,4-difluorobenzamide], the IC50 with Calu-6 worked out at 43 nM; at BRAF, 3 nM; at MEK1, 19 nM; in the data set on NCI-H2122, 16 nM; with A549, 18 nM. In data set [1], this compound had a microsomal CLint at 0.99 µM of 26 µL/min/mg.

Turning to `O=C(NC1CC1)c1cc(Cc2ccnc(NS(=O)(=O)NC3CC3)c2F)c(F)c(F)c1Nc1ccc(I)cc1Cl` [Compound B-12, 2-(2-Chloro-4-iodoanilino)-N-cyclopropyl-5-[[2-(cyclopropylsulfamoylamino)-3-fluoropyridin-4-yl]methyl]-3,4-difluorobenzamide], the concentration for half-maximal inhibition (IC50) in the data set on Calu-6 stood at 30 nM; on BRAF it was 8 nM; on MEK1 it was 61 nM; with NCI-H2122 it was 8 nM; in the data set with A549 it was 14 nM. This compound also showed an intrinsic metabolic clearance (microsomal CLint) at 0.99 µM in data set [1] of 39 µL/min/mg.

As to `CC(C)(C)ONC(=O)c1cc(Cc2ccnc(NS(=O)(=O)NC3CC3)c2F)c(F)c(F)c1Nc1ccc(I)cc1Cl` [Compound B-13, 2-(2-Chloro-4-iodoanilino)-5-[[2-(cyclopropylsulfamoylamino)-3-fluor opyridin-4-yl]methyl]-3,4-difluoro-N-[(2-methylpropan-2-yl)oxy]benzamide], the half-maximal inhibitory concentration (IC50) turned out to be 34 nM in the data set with Calu-6; 10 nM at BRAF; 13 nM at MEK1; 14 nM in the data set with NCI-H2122; 26 nM with A549. In data set [1], this compound yielded a microsomal CLint at 0.99 µM of 66 µL/min/mg.

On to `NC(=O)c1cc(Cc2ccnc(NS(N)(=O)=O)c2)c(F)c(F)c1Nc1ccc(I)cc1F` [Compound C-1, 3,4-Difluoro-2-(2-fluoro-4-iodoanilino)-5-[[2-(sulfamoylamino)pyridin-4-yl]methyl]benzamide], for which the concentration for half-maximal inhibition (IC50) in the data set with Calu-6 is 16 nM; at BRAF, 4 nM; at MEK1 it was 72 nM; in the data set on NCI-H2122 it was 4 nM; in the data set with A549 it was 7 nM. Also, in data set [1], the microsomal CLint at 0.99 µM turned out to be 10 µL/min/mg.

Consider `CNS(=O)(=O)Nc1cccc(Cc2cc(C(=O)NC3CC3)c(Nc3ccc(I)cc3F)c(F)c2F)c1` [Compound C-6, N-Cyclopropyl-3,4-difluoro-2-(2-fluoro-4-iodoanilino)-5-[[3-(methylsulfamoylamino)phenyl]methyl]benzamide], for which the IC50 came to 31 nM with Calu-6; 9 nM at BRAF; 268 nM at MEK1; 4 nM in the data set with NCI-H2122; 6 nM in the data set with A549. The microsomal CLint at 0.99 µM in data set [1] was 74 µL/min/mg.

On to `CCS(=O)(=O)Nc1cccc(Cc2cc(C(N)=O)c(Nc3ccc(I)cc3F)c(F)c2F)c1F` [Compound D-4, 5-[[3-(ethylsulfonylamino)-2-fluorophenyl]methyl]-3,4-difluoro-2-(2-fluoro-4-iodoanilino)benzamide], for which the IC50 in the data set with Calu-6 is 67 nM; at BRAF it was 3 nM; on MEK1 it was 196 nM; with NCI-H2122, 5 nM; in the data set with A549, 16 nM. The microsomal CLint at 0.99 µM in data set [1] was 9 µL/min/mg.

With `COCCS(=O)(=O)Nc1cccc(Cc2cc(C(N)=O)c(Nc3ccc(I)cc3F)c(F)c2F)c1F` [Compound D-5, 3,4-Difluoro-2-(2-fluoro-4-iodoanilino)-5-[[2-fluoro-3-(2-methoxyethylsulfonylamino)phenyl]methyl]benzamide], the IC50 in the data set with Calu-6 turned out to be 71 nM; at BRAF, 7 nM; on MEK1 it was 169 nM; with NCI-H2122 it was 5 nM; with A549, 10 nM. In data set [1], this compound gave an intrinsic metabolic clearance (microsomal CLint) at 0.99 µM of 28 µL/min/mg.

On to `CNS(=O)(=O)Nc1cccc(Cc2cc(C(=O)NC3CC3)c(Nc3ccc(I)cc3F)c(F)c2F)c1F` [Compound D-6, N-Cyclopropyl-3,4-difluoro-2-(2-fluoro-4-iodoanilino)-5-[[2-fluoro-3-(methylsulfamoylamino)phenyl]methyl]benzamide], for which the IC50 in the data set with Calu-6 was found to be 24 nM; at BRAF, 8 nM; on MEK1 it was 55 nM; in the data set with NCI-H2122 it was 2 nM; with A549, 8 nM. Further, the microsomal CLint at 0.99 µM in data set [1] stood at 34 µL/min/mg.

Consider `NS(=O)(=O)Nc1cccc(Cc2cc(C(=O)NC3CC3)c(Nc3ccc(I)cc3F)c(F)c2F)c1F` [Compound D-7, N-Cyclopropyl-3,4-difluoro-2-(2-fluoro-4-iodoanilino)-5-[[2-fluoro-3-(sulfamoylamino)phenyl]methyl]benzamide], for which the IC50 in the data set with Calu-6 was 9 nM; at BRAF, 4 nM; on MEK1 it was 282 nM; in the data set on NCI-H2122 it was 2 nM; in the data set with A549 it was 3 nM. This compound also yielded a microsomal CLint at 0.99 µM in data set [1] of 11 µL/min/mg.

Take `CCS(=O)(=O)Nc1cccc(Cc2cc(C(=O)NOC)c(Nc3ccc(I)cc3F)c(F)c2F)c1F` [Compound E-1, 5-[[3-(ethylsulfonylamino)-2-fluorophenyl]methyl]-3,4-difluoro-2-(2-fluoro-4-iodoanilino)-N-methoxybenzamide]: the half-maximal inhibitory concentration (IC50) in the data set with Calu-6 was 6 nM; on BRAF, 12 nM; at MEK1, 40 nM; in the data set on NCI-H2122 it was 0.4 nM; in the data set on A549 it was 2 nM. The compound also gave an intrinsic clearance (microsomal CLint) at 0.99 µM in data set [1] of 17 µL/min/mg.
